The subject of one series is TE-1. Briefly: Cytotoxicity against human TE-1 cells assessed as inhibition of cell proliferation at 20 uM incubated for 24 hrs by CCK8 assay. Format: functional, cell-based.
The test system of another series is Bacillus subtilis. Nature of the series: Antibacterial activity against Bacillus subtilis ATCC 6633 at 1 mM at 20 uM incubated for 16 hrs by disk diffusion method. It is filed as functional, organism-based. (A growth-free zone around the sample is the usual read-out of agar diffusion tests.)
In the next series the test system is L02. Nature of the series: Cytotoxicity against human L02 cells assessed as inhibition of cell proliferation at 20 uM incubated for 24 hrs by CCK8 assay. The note with it: l02, 24 h. Format: toxicity, cell-based. Background: Tetrazolium assays rely on reduction of a dye to a coloured formazan, in cell work by metabolically active cells.
A further series has as its system HCT-116. Briefly: Cytotoxicity against human HCT-116 cells assessed as inhibition of cell proliferation at 20 uM incubated for 24 hrs by CCK8 assay. It is filed as functional, cell-based.
A further series deals with A-375. Nature of the series: Cytotoxicity against human A-375 cells assessed as inhibition of cell proliferation at 20 uM incubated for 24 hrs by CCK8 assay. Format: functional, cell-based.
The test system of the next series is HeLa. Nature of the series: Cytotoxicity against human HeLa cells assessed as inhibition of cell proliferation at 20 uM incubated for 24 hrs by CCK8 assay. It is filed as functional, cell-based.
The next series has as its system Staphylococcus aureus. Nature of the series: Antibacterial activity against Staphylococcus aureus ATCC 29213 at 1 mM at 20 uM incubated for 16 hrs by disk diffusion method. It is filed as functional, organism-based.
The next series has as its system Escherichia coli. Briefly: Antibacterial activity against Escherichia coli CGMCC 44102 at 1 mM at 20 uM incubated for 16 hrs by disk diffusion method. Format: functional, organism-based.
Another series concerns SF-126. Nature of the series: Cytotoxicity against human SF-126 cells assessed as inhibition of cell proliferation at 20 uM incubated for 24 hrs by CCK8 assay. Format: functional, cell-based.
Another series has as its system GBC-SD. Briefly: Cytotoxicity against human GBC-SD cells assessed as inhibition of cell proliferation at 20 uM incubated for 24 hrs by CCK8 assay. Format: functional, cell-based.
The subject of a further series is HepG2. Briefly: Cytotoxicity against human HepG2 cells assessed as inhibition of cell proliferation at 20 uM incubated for 24 hrs by CCK8 assay. Format: functional, cell-based.
The subject of the next series is 5637. Nature of the series: Cytotoxicity against human 5637 cells assessed as inhibition of cell proliferation at 20 uM incubated for 24 hrs by CCK8 assay. It is filed as functional, cell-based.
Another series deals with MCF7. Briefly: Cytotoxicity against human MCF7 cells assessed as inhibition of cell proliferation at 20 uM incubated for 24 hrs by CCK8 assay. Format: functional, cell-based.
Series [1] has as its system RAW264.7. Briefly: Anti-inflammatory activity against mouse RAW264.7 cells at 20 uM pretreated for 30 mins followed by LPS treatment for 24 hrs by Griess assay. Format: functional, cell-based. The note with it: time 24.5 hrs.
For series [2], the system named is RAW264.7. Briefly: Cytotoxicity against mouse RAW264.7 cells assessed as inhibition of cell proliferation at 20 uM incubated for 24 hrs by CCK8 assay. It is filed as functional, cell-based.
Another series relates to A673. Nature of the series: Cytotoxicity against human A673 cells assessed as inhibition of cell proliferation at 20 uM incubated for 24 hrs by CCK8 assay. It is filed as functional, cell-based.
Another series has as its system HOS. Nature of the series: Cytotoxicity against human HOS cells assessed as inhibition of cell proliferation at 20 uM incubated for 24 hrs by CCK8 assay. Format: functional, cell-based.
The subject of another series is 786-0. Nature of the series: Cytotoxicity against human 786-0 cells assessed as inhibition of cell proliferation at 20 uM incubated for 24 hrs by CCK8 assay. It is filed as functional, cell-based.
In the next series the test system is K562. Nature of the series: Cytotoxicity against human K562 cells assessed as inhibition of cell proliferation at 20 uM incubated for 24 hrs by CCK8 assay. Format: functional, cell-based.
In the next series the test system is CAL-62. Briefly: Cytotoxicity against human CAL-62 cells assessed as inhibition of cell proliferation at 20 uM incubated for 24 hrs by CCK8 assay. Format: functional, cell-based.
Another series has as its system MKN-45. Nature of the series: Cytotoxicity against human MKN-45 cells assessed as inhibition of cell proliferation at 20 uM incubated for 24 hrs by CCK8 assay. It is filed as functional, cell-based.
The subject of a further series is DU-145. Briefly: Cytotoxicity against human DU-145 cells assessed as inhibition of cell proliferation at 20 uM incubated for 24 hrs by CCK8 assay. It is filed as functional, cell-based.
The subject of another series is PaTu 8988t. Nature of the series: Cytotoxicity against human PaTu 8988t cells assessed as inhibition of cell proliferation at 20 uM incubated for 24 hrs by CCK8 assay. It is filed as functional, cell-based.
The next series concerns A549. Nature of the series: Cytotoxicity against human A549 cells assessed as inhibition of cell proliferation at 20 uM incubated for 24 hrs by CCK8 assay. Format: functional, cell-based.

Calls of active or inactive are those of the source. The rule behind the calls is not given here. Numbered stars: 1 amine (or outer) side, 2 acyl side, 3 side chain; on linkers, the order of the positions; unused ones are H or OH. Peptide text beside a SMILES is read from it. Trp(6-Br) = N[C@@H](Cc1c[nH]c2cc(Br)ccc12)C(=O)O; CO = O=C([*:1])[*:2]

As for `COC(=O)[C@@H](NC(=O)[C@H](Cc1c[nH]c2ccccc12)NC(=O)[C@H](Cc1c[nH]c2ccccc12)NC(=O)[C@@H](NC(=O)N[C@@H](Cc1c[nH]c2cc(Br)ccc12)C(=O)O)[C@@H](C)O)C(C)C` ({Trp(6-Br)-CO}-TWWV-OMe), the outcome with TE-1, with Bacillus subtilis, in the series with HCT-116, with A-375, with HeLa and with Staphylococcus aureus was inactive. Further, the outcome in the series with Escherichia coli, with SF-126, with GBC-SD, in the series on HepG2, in the series on 5637 and in the series on MCF7 was inactive. The outcome with RAW264.7 [1], in the series with RAW264.7 [2], in the series on A673, with HOS, with 786-0 and with K562 was inactive. In addition, the result with CAL-62, in the series with MKN-45, in the series with DU-145, with PaTu 8988t and with A549 was inactive. The Activity entry in the series on L02 was “Non-toxic”.
For `COC(=O)[C@@H](NC(=O)[C@H](Cc1c[nH]c2ccccc12)NC(=O)[C@H](Cc1c[nH]c2ccccc12)NC(=O)[C@@H](NC(=O)N[C@@H](Cc1c[nH]c2ccccc12)C(=O)O)[C@@H](C)O)C(C)C` ({Trp-CO}-TWWV-OMe), the result with TE-1, in the series on Bacillus subtilis, in the series with HCT-116, with A-375, in the series with HeLa and with Staphylococcus aureus was inactive. Besides, the outcome in the series on Escherichia coli, in the series with SF-126, in the series on GBC-SD, with HepG2, in the series with 5637 and with MCF7 was inactive. The outcome with RAW264.7 [1], in the series on RAW264.7 [2], in the series with A673, in the series on HOS, with 786-0 and in the series on K562 was inactive. The outcome with CAL-62, with MKN-45, in the series with DU-145, in the series on PaTu 8988t and in the series with A549 was inactive. In addition, in the series on L02, the Activity result is “Non-toxic”.
